The target in assay [1] is GDP-bound NRAS wild-type protein (Homo sapiens, UniProt P01111). The experiment in a line: Binding to NRAS by surface plasmon resonance (SPR), Single Cycle Kinetics. Conditions: for NRAS/KRAS (ratio of KD value with respect to GDP-bound NRAS wild-type protein to KD value with respect to KRAS): class symbols; for NRAS/KRAS (ratio of KD value with respect to NRAS to KD value with respect to KRAS): GDP-bound NRAS wild-type vs GDP-bound KRAS wild-type; for NRAS/KRAS (ratio of KD value with respect to NRAS to KD value with respect to KRAS) / NRAS/KRAS (ratio of KD for GDP-bound NRAS wild-type to KD for KRAS): SPR. For orientation: In SPR one partner is held on a chip, and binding of the other changes the refractive index at the surface.
Sequence of GDP-bound NRAS wild-type protein (P01111 whole entry): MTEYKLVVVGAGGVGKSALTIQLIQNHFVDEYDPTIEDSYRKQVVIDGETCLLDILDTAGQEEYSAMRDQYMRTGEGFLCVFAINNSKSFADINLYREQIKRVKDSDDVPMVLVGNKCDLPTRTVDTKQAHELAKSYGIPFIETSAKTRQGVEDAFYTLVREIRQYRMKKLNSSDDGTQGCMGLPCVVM

The target in assay [2] is GDP-bound HRAS wild-type protein (Homo sapiens, UniProt P01112). The experiment in a line: Binding to HRAS by surface plasmon resonance (SPR), Single Cycle Kinetics. The conditions noted are these: for HRAS/KRAS (ratio of KD value with respect to GDP-bound HRAS wild-type protein to KD value with respect to KRAS): class symbols; for HRAS/KRAS (ratio of KD value with respect to HRAS to KD value with respect to KRAS): GDP-bound HRAS wild-type vs GDP-bound KRAS wild-type; for HRAS/KRAS (ratio of KD value with respect to HRAS to KD value with respect to KRAS) / HRAS/KRAS (ratio of KD for GDP-bound HRAS wild-type to KD for KRAS): SPR.
Sequence of GDP-bound HRAS wild-type protein (P01112 whole entry): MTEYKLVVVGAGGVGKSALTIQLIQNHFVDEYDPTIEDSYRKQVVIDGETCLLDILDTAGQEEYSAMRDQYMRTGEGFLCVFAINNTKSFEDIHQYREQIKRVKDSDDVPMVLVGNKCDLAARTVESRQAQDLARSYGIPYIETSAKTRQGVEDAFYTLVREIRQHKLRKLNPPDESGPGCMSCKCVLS

The values below come from patent US20250230193A1, “CYCLIC COMPOUND HAVING SELECTIVE KRAS INHIBITORY EFFECT ON HRAS AND NRAS” (CHUGAI SEIYAKU KABUSHIKI KAISHA, priority 2022, published 2025).

*1 amine or outer side, *2 acyl side, *3 side chain or, on linkers, in order; H or OH if unused. Where a SMILES comes first, the peptide text is derived from it. Bridges are numbered along the chain shown (N, C = ends). [ ]: non-standard residue; d: D form. The star is where a group is joined. hPhe(3-Cl-4-CF3) = N[C@@H](CCc1ccc(C(F)(F)F)c(Cl)c1)C(=O)O; X37 = O=C([C@H](Cc1ccc(C(F)(F)F)cc1)N(CC1CCC1)[*:1])[*:2]; NPrPhe(4-CF3) = CCCN[C@@H](Cc1ccc(C(F)(F)F)cc1)C(=O)O; NMeGly(cPent) = CN[C@H](C(=O)O)C1CCCC1; NMeD = CN[C@@H](CC(=O)O)C(=O)O; NMeL = CN[C@@H](CC(C)C)C(=O)O; hPip = O=C(O)[C@@H]1CCCCCN1; Morpholide = C1CN(*)CCO1; NMeA = CN[C@@H](C)C(=O)O; Ac5c = NC1(C(=O)O)CCCC1; Aze = O=C(O)[C@@H]1CCN1; NEtG = CCNCC(=O)O; Sar = CNCC(=O)O

In the case of `CCC[C@H]1C(=O)N[C@@H](CC(C)C)C(=O)N(CC)CC(=O)N(C)[C@H]2C/C=C\CCN(C2=O)[C@@H](Cc2ccc(C)cc2)C(=O)N(C)CC(=O)N[C@@H](CCc2ccc(C(F)(F)F)c(OC)c2)C(=O)N2C[C@H](OCC)C[C@H]2C(=O)NC2(CCC2)C(=O)N(C)[C@@H](C2CCCC2)C(=O)N(C)[C@H](C(=O)N(C)C)CC(=O)N1C` [PP2540], the “NRAS/KRAS (ratio of KD value with respect to GDP-bound NRAS wild-type protein to KD value with respect to KRAS)” value in assay [1] is “A (a compound having 10 or more and less than 20 is denoted as A)”. Further, in assay [2], the “HRAS/KRAS (ratio of KD value with respect to GDP-bound HRAS wild-type protein to KD value with respect to KRAS)” value was “B (a compound having 3 or more and less than 10 is denoted as B)”.
`CC[C@H](C)[C@@H]1NC(=O)[C@H](CC)N(C)C(=O)C[C@@H](C(=O)N(C)C)N(C)C(=O)[C@H](C2CCCC2)N(C)C(=O)C2(CCC2)NC(=O)[C@@H]2CC(F)(F)CN2C(=O)[C@H](CCc2cc(F)c(C(F)(F)F)c(F)c2)NC(=O)CN(C)C(=O)[C@H](Cc2ccc(C(F)(F)F)cc2)N2CC/C=C\C[C@@H](C2=O)N(C)C(=O)CN(C)C1=O` [PP1129]: the “NRAS/KRAS (ratio of KD value with respect to NRAS to KD value with respect to KRAS)” value in assay [1] was “A (a compound having 10 or more and less than 20 is denoted as A)”. Besides, in assay [2], the “HRAS/KRAS (ratio of KD value with respect to HRAS to KD value with respect to KRAS)” value is “B (a compound having 3 or more and less than 10 is denoted as B)”.
As to `CCO[C@@H]1C[C@H]2C(=O)NC3(CCC3)C(=O)N(C)[C@@H](C3CCCC3)C(=O)N(CC)[C@H](C(=O)N3CCOCC3)CC(=O)N(C)[C@@H](CCC(Cl)Cl)C(=O)N[C@@H]([C@@H](C)CC)C(=O)N(C)CC(=O)N(C)[C@H]3CCCCCN(C3=O)[C@@H](Cc3ccc(C(F)(F)F)cc3)C(=O)N(C)CC(=O)N[C@@H](CCc3cc(F)c(C(F)(F)F)c(F)c3)C(=O)N2C1` [PP0949], the “NRAS/KRAS (ratio of KD value with respect to NRAS to KD value with respect to KRAS)” value in assay [1] was “A (a compound having 10 or more and less than 20 is denoted as A)”. For the same compound, the “HRAS/KRAS (ratio of KD value with respect to HRAS to KD value with respect to KRAS)” value in assay [2] was “A (a compound having 10 or more and less than 20 is denoted as A)”.
`CC[C@H](C)[C@@H]1NC(=O)[C@H](CC(C)C)N(C)C(=O)C[C@@H](C(=O)N2CCOCC2)N(C)C(=O)[C@H](C2CCCC2)N(C)C(=O)C2(CCCC2)NC(=O)[C@@H]2CCCN2C(=O)[C@H](CCc2ccc(C(F)(F)F)c(Cl)c2)NC(=O)CN(C)C(=O)[C@H](Cc2ccc(C(F)(F)F)cc2)N(CC2CCC2)C(=O)[C@@H]2CCN2C(=O)[C@H](C)N(C)C1=O` [PP0109] ([NMeL]I[NMeA][Aze][X37][Sar][hPhe(3-Cl-4-CF3)]P[Ac5c][NMeGly(cPent)][NMeD]-Morpholide; lactam N-11): in assay [1], the “NRAS/KRAS (ratio of KD for GDP-bound NRAS wild-type to KD for KRAS)” value is “C (A compound having a KD ratio of 0.1 or more and less than 3 is denoted as C)”. Moreover, the “HRAS/KRAS (ratio of KD for GDP-bound HRAS wild-type to KD for KRAS)” value in assay [2] was “B (a compound having 3 or more and less than 10 is denoted as B)”.
For the compound `CCCN1C(=O)CN(C)C(=O)CN(CC)C(=O)[C@H]([C@@H](C)CC)NC(=O)[C@@H]2CCCCCN2C(=O)C[C@@H](C(=O)N2CCOCC2)N(C)C(=O)[C@H](C2CCCC2)N(C)C(=O)C2(CCCC2)NC(=O)[C@@H]2CCCN2C(=O)[C@H](CCc2ccc(C(F)(F)F)c(Cl)c2)NC(=O)CN(C)C(=O)[C@@H]1Cc1ccc(C(F)(F)F)cc1` [PP0289] ([hPip]I[NEtG][Sar][NPrPhe(4-CF3)][Sar][hPhe(3-Cl-4-CF3)]P[Ac5c][NMeGly(cPent)][NMeD]-Morpholide; lactam N-11), the “NRAS/KRAS (ratio of KD for GDP-bound NRAS wild-type to KD for KRAS)” value in assay [1] was “B (a compound having 3 or more and less than 10 is denoted as B)”. In addition, the “HRAS/KRAS (ratio of KD for GDP-bound HRAS wild-type to KD for KRAS)” value in assay [2] is “B (a compound having 3 or more and less than 10 is denoted as B)”.
As for `CCC[C@H]1C(=O)N[C@@H]([C@@H](C)CC)C(=O)N(C2CC2)CC(=O)N(C)[C@H]2C/C=C\CCN(C2=O)[C@@H](Cc2ccc(C)cc2)C(=O)N(C)CC(=O)N[C@@H](CCc2cc(F)c(C(F)(F)F)c(F)c2)C(=O)N2C[C@H](OC(C)C)C[C@H]2C(=O)NC2(CC(C)(C)C2)C(=O)N(C)[C@@H](C2CCCC2)C(=O)N(C)[C@H](C(=O)N(C)C)CC(=O)N1C` [PP2570], the “NRAS/KRAS (ratio of KD value with respect to GDP-bound NRAS wild-type protein to KD value with respect to KRAS)” value in assay [1] is “A (a compound having 10 or more and less than 20 is denoted as A)”. The “HRAS/KRAS (ratio of KD value with respect to GDP-bound HRAS wild-type protein to KD value with respect to KRAS)” value in assay [2] was “A (a compound having 10 or more and less than 20 is denoted as A)”.
Consider `CCO[C@@H]1C[C@H]2C(=O)NC3(CCCC3)C(=O)N(C)[C@@H](C3CCCC3)C(=O)N(C)[C@H](C(=O)N3CCOCC3)CC(=O)N(C)[C@@H](CC(C)C)C(=O)N[C@@H]([C@@H](C)CC)C(=O)N(C)CC(=O)N(C)[C@H]3C[C@@H](C)CCN(C3=O)[C@@H](Cc3ccc(C(F)(F)F)cc3)C(=O)N(C)CC(=O)N[C@@H](CCc3cc(F)c(C(F)(F)F)c(F)c3)C(=O)N2C1` [PP1024], for which the “NRAS/KRAS (ratio of KD value with respect to NRAS to KD value with respect to KRAS)” value in assay [1] was “B (a compound having 3 or more and less than 10 is denoted as B)”. Also, in assay [2], the “HRAS/KRAS (ratio of KD value with respect to HRAS to KD value with respect to KRAS)” value is “B (a compound having 3 or more and less than 10 is denoted as B)”.
